# PMC10349806 (Nature Communications, 2023)
# Where “and” joins values, the source holds several entries; their conditions need not be identical. Equal entries are not always repeated.
# Legend:
# PfCRT variant K80A = test: CQ uptake assay, oocytes expressing K80A; format: cell-based, Plasmodium falciparum
# Method: (§1) Site-directed mutagenesis of PfCRT^Dd2 was performed as described using the megaprimer method with overlap extension[21],[54]. The primer pairs used are listed in Supplementary Table 6. Please note that a codon-optimized and oocyte-adapted version of PfCRT^Dd2 was used[22] (Supplementary Fig. 16). The resulting DNA fragment was cloned into the SP64T expression vector and verified by sequencing.
# (§2) Oocytes were obtained as described previously. Briefly, adult (>2 years old) female X. laevis frogs (NASCO) were anesthetized in a cooled solution of ethyl 3-amino benzoate methanesulfonate (0.1%, w/v), followed by a surgical removal of parts of the ovary. The ovary lobes were carefully dissected and small pieces of oocytes were incubated in Ca^2+-free ND96 buffer (96 mM NaCl, 2 mM KCl, 1 mM MgCl2 buffered with 5 mM HEPES/NaOH, pH 7.5) supplemented with collagenase D (0.1%, w/v; Roche), BSA (0.5%, w/v), and 9 mm Na2HPO4 at 18 °C for 14-16 h while gentle shaking. After incubation, the oocytes were carefully washed several times with ND96 buffer (96 mM NaCl, 2 mM KCl, 1.8 mM CaCl2, 1 mM MgCl2 buffered with 5 mM HEPES/NaOH, pH 7.5) supplemented with 100 mg l^−1 gentamycin). Defolliculated and healthy-looking stage V-VI oocytes were manually selected for RNA microinjection. The RNA was generated as following: The codon-optimized sequences of PfCRT variants were cloned into the pSP64T expression vector. After vector linearization using the restriction endonucleases BamHI or SalI (New England Biolabs), transcription was performed using the in vitro SP6 mMessage mMachine Kit (Ambion)[34]. The obtained RNA was kept at −80 °C and diluted with nuclease-free water to a concentration of 0.6 μg μl^−1. Precision-bore glass capillary tubes (3.5-inch glass capillaries; Drummond Scientific Co.) were pulled on a vertical puller (P-87 Flaming/Brown micropipette puller, Sutter Instrument Co.), graduated, and placed on a microinjector (Nanoject II Auto-Nanoliter Injector, Drummond Scientific Co.). 50 nl of nuclease-free water alone (control oocytes) or 50 nl of 0.6 μg μl^−1 RNA were injected under stereomicroscopic control. Injected oocytes were incubated for 46–72 h at 18 °C with twice-daily buffer changes before usage in experiments.
# Drug uptake assays were performed as described previously[21],[22],[24],[34]. […] The direction of radio-labeled drug transport is here from the mostly acidic extracellular solution (pH 4.5 or 6.0, as indicated) into the oocyte cytosol (pH ∼ 7.2), which corresponds to the efflux of drug from the acidic digestive vacuole (pH 5.2) into the parasite cytoplasm (pH 7.2). The topology of PfCRT in the oolemma is such that both the N- and C-terminus face the extracellular milieu[3],[22]. In the parasite, the N- and C-terminus face the lumen of the digestive vacuole. CQ uptake kinetics were performed by incubating oocytes in ND96 buffer adjusted to a pH of 4.5, 5.0, 5.5, or 6.0 and supplemented with 50 nM [^3H]CQ and one of 7 different CQ concentrations (10 µM, 50 µM, 100 µM, 200 µM, 300 µM, 400 µM, 500 µM CQ). The reaction was stopped at the 60 min time point, which is in the linear uptake range[22],[34] (Supplementary Fig. 17). For determination of the amount of drug uptake for each oocyte, the reaction medium was removed and the oocytes were washed three times with 2 ml of ice-cold ND96 buffer. Each oocyte was individually transferred to a scintillation vial containing 5% sodium dodecyl sulfate (200 μl) for lysis. The radioactivity of each sample was measured using a liquid scintillation analyzer Tri-Carb 4910 TR (PerkinElmer). Oocytes that were injected with water instead of RNA were analyzed in parallel, representing the uptake of a drug by diffusion and/or endogenous permeation pathways. The resulting value represents the “background“ level of drug accumulation in oocytes (in-depth discussion in[22]). […]
# PfCRT variant H97A = molecular target: T1, PfCRT variant H97A (Plasmodium falciparum, UniProt Q9N623, A220S/H97A/I356T/K76T/M74I/N326S/N75E/Q271E/R371I); test: CQ uptake assay, oocytes expressing H97A; format: cell-based
# T1 sequence (Q9N623 1-424 M74I/N75E/K76T/H97A/A220S/Q271E/N326S/I356T/R371I): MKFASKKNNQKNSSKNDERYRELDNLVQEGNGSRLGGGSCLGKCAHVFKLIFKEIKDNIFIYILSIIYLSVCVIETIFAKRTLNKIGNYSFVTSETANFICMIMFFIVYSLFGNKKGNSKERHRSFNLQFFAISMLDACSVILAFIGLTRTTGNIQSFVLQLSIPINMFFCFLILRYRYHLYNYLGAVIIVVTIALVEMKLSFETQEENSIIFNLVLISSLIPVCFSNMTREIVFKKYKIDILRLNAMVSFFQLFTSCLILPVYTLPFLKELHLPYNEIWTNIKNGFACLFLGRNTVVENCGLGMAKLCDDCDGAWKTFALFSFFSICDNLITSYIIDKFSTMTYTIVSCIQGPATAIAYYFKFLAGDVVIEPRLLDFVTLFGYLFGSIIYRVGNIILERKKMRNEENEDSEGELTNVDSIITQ
# Method: as §1, §2
# Drug uptake assays were performed as described previously[21],[22],[24],[34]. […] Oocytes that were injected with water instead of RNA were analyzed in parallel, representing the uptake of a drug by diffusion and/or endogenous permeation pathways. […] The specific PfCRT-mediated uptake was determined by subtracting the corresponding background value measured in water-injected oocytes from that of PfCRT-expressing oocytes. […]
# [1] = pKa values of the drugs (literature); format: physicochemical; details: between pH 4.5 and 6.0
# [2] = K80A, 50 µM CQ, 1 h, mean ± SEM
compound,measurement,setting,value
"CCN(CC)CCCC(C)Nc1ccnc2cc(Cl)ccc12 (centres unmarked) [CQ, chloroquine]",Activity at pH 4.5,PfCRT variant K80A; [2],1.71 ± 0.08 pmol h-1 oocyte-1
same,Activity at pH 6.0,PfCRT variant K80A; [2],2.26 ± 0.12 pmol h-1 oocyte-1
same,R-value,"PfCRT variant K80A; K80A, CQ transport at pH 4.5 / pH 6.0",0.76 ± 0.04
same,K80A transport activity pH 4.5,"PfCRT variant K80A; pH 4.5, individual replicates (Fig 6a)",1.97 pmol oocyte-1 h-1 and 1.67 pmol oocyte-1 h-1 and 1.57 pmol oocyte-1 h-1 and 1.62 pmol oocyte-1 h-1
same,K80A transport activity pH 6.0,"PfCRT variant K80A; pH 6.0, individual replicates (Fig 6a)",2.59 pmol oocyte-1 h-1 and 1.89 pmol oocyte-1 h-1 and 2.31 pmol oocyte-1 h-1 and 2.26 pmol oocyte-1 h-1
same,K80A R-value,PfCRT variant K80A; transport activity pH 4.5 relative to pH 6.0 (Fig 6a),0.76 and 0.88 and 0.68 and 0.72
same,Activity at pH 6.0,"PfCRT variant H97A; H97A, 50 µM CQ, 1 h, mean ± SEM",6.57 ± 0.71 pmol h-1 oocyte-1
same,R-value,"PfCRT variant H97A; H97A, CQ transport at pH 4.5 / pH 6.0",0.40 and 0.40 ± 0.04
same,H97A transport activity pH 4.5,"PfCRT variant H97A; pH 4.5, single replicates, Fig 1d left",3.71 pmol oocyte-1 h-1 and 4.69 pmol oocyte-1 h-1 and 2.51 pmol oocyte-1 h-1 and 3.21 pmol oocyte-1 h-1 and 2.32 pmol oocyte-1 h-1 and 1.49 pmol oocyte-1 h-1 and 2.15 pmol oocyte-1 h-1 and 1.58 pmol oocyte-1 h-1
same,H97A transport activity pH 6.0,"PfCRT variant H97A; pH 6.0, single replicates, Fig 1d left",9.31 pmol oocyte-1 h-1 and 6.25 pmol oocyte-1 h-1 and 4.00 pmol oocyte-1 h-1 and 9.52 pmol oocyte-1 h-1 and 5.42 pmol oocyte-1 h-1 and 3.89 pmol oocyte-1 h-1 and 6.61 pmol oocyte-1 h-1 and 7.56 pmol oocyte-1 h-1
same,molecules being di-protonated,[1],> 99%
